Measurements published in patent publication US11325899B2, “Benzofurane and benzothiophene derivatives as PGE2 receptor modulators” (IDORSIA PHARMACEUTICALS LTD, priority 2017, dated 2022).

What was measured:
EP2 receptor = target: T1, EP2 receptor (Homo sapiens, UniProt P43116); assay: hEP2 cAMP assay (SF295 glioblastoma cells, HTRF cAMP, PGE2 stimulation); assay type: cell-based; conditions: antagonistic activity
T1 construct: SF295 glioblastoma cells express high endogenous EP2 and no EP4; host or cells: SF295 glioblastoma cells
In short: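 HTRF cAMP readout gave % cAMP relative to DMSO, fitted to IC50 with duplicate points. Compounds were preincubated 45 min at room temperature with EP2-expressing, EP4-negative SF295 cells in IBMX (2 mM)-containing buffer before a 30 min challenge with PGE2 at 75 nM final, its EC80.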

EP4 receptor = target: T2, EP4 receptor (Homo sapiens, UniProt P35408); assay: hEP4 cAMP assay (BT549 breast cancer cells, HTRF cAMP, PGE2 stimulation); assay type: cell-based; conditions: antagonistic activity, PGE2 6 nM (EC80)
T2 construct: BT549 breast cancer cells, express high endogenous EP4 levels and very low EP2 levels; host or cells: BT549 breast cancer cells
In short: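 BT549 cells, with endogenous EP4 and very low EP2, were preincubated 45 min at room temperature with compound in HBSS/HEPES/BSA buffer with 2 mM IBMX. They were then stimulated 30 min with 6 nM PGE2 (EC80). cAMP was measured by HTRF competitive immunoassay against a calibrator; IC50 from duplicate dose-response as % of DMSO control.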

T2 sequence (P35408 whole entry): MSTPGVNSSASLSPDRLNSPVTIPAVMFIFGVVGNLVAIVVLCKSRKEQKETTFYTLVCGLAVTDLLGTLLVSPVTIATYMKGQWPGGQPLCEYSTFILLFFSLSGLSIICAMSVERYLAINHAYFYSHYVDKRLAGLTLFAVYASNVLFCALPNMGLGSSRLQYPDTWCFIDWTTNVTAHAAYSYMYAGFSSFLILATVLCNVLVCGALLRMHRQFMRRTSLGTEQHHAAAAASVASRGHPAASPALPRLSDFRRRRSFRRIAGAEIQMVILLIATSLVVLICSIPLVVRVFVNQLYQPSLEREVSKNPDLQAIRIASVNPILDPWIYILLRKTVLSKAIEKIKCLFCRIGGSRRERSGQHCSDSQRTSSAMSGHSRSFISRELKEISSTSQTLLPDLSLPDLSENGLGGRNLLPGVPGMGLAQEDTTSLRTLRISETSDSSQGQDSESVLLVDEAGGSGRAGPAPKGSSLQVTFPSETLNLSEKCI
T1 sequence (P43116 whole entry): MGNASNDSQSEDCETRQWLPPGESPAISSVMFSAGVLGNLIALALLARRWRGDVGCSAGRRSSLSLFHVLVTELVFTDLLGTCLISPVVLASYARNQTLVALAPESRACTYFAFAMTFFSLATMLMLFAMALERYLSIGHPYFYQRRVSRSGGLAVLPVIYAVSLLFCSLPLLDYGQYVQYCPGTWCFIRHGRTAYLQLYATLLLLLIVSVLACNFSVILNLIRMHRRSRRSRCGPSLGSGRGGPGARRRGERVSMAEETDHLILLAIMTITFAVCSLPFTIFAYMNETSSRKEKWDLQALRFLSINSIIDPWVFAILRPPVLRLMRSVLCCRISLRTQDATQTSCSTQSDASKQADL

| Structure (SMILES) | IC50 (EP2 receptor) [nM] | IC50 (EP4 receptor) [nM] |
| --- | --- | --- |
| Cc1sc2c(C)cc(F)cc2c1CCNc1cc(-c2ccc(-c3nc(=O)[nH]o3)cc2)ncn1 [Example 79, 5-(4-{6-[2-(5-Fluoro-2,7-dimethyl-benzo[b]thiophen-3-yl)-ethylamino]-pyrimidin-4-yl}-phenyl)-[1,2,4]oxadiazol-3(2H)-one [tautomeric form: 5-(4-(6-((2-(5-fluoro-2,7-dimethylbenzo[b]thiophen-3-yl)ethyl)amino)pyrimidin-4-yl)phenyl)-[1,2,4]oxadiazol-3-ol]] | 106 | 91 |
| CCOc1cc(-c2cc(NCCc3c(C)sc4c(C)c(F)ccc34)ncn2)ccc1C(=O)O [Example 62, 2-Ethoxy-4-{6-[2-(6-fluoro-2,7-dimethyl-benzo[b]thiophen-3-yl)-ethylamino]-pyrimidin-4-yl}-benzoic acid] | 14 | 393 |
| CCSc1cc(-c2cc(NCCc3c(C)oc4ccccc34)ncn2)ccc1C(=O)O [Example 44, 2-Ethylsulfanyl-4-{6-[2-(2-methyl-benzofuran-3-yl)-ethylamino]-pyrimidin-4-yl}-benzoic acid] | 4 | 1380 |
| CCOc1cc(-c2cc(NCCc3c(C)sc4c(C)cc(F)cc34)ncn2)sc1CC(=O)O [Example 52, (3-Ethoxy-5-{6-[2-(5-fluoro-2,7-dimethyl-benzo[b]thiophen-3-yl)-ethylamino]-pyrimidin-4-yl}-thiophen-2-yl)-acetic acid] | 95 | 231 |
| CCCSc1cc(-c2cc(NCCc3c(C)sc4c(C)cccc34)ncn2)ccc1C(=O)O [Example 87, 4-{6-[2-(2,7-Dimethyl-benzo[b]thiophen-3-yl)-ethylamino]-pyrimidin-4-yl}-2-propylsulfanyl-benzoic acid] | 15 | 451 |
| Cc1sc2ccccc2c1CCNc1cc(-c2ccc(C(=O)O)c(SC(C)C)c2)ncn1 [Example 91, 2-Isopropylsulfanyl-4-{6-[2-(2-methyl-benzo[b]thiophen-3-yl)-ethylamino]-pyrimidin-4-yl}-benzoic acid] | 10 | 539 |
| CSc1cc(-c2cc(NCCc3c(C)sc4c(C)cccc34)ncn2)cc(F)c1C(=O)O [Example 47, 4-{6-[2-(2,7-Dimethyl-benzo[b]thiophen-3-yl)-ethylamino]-pyrimidin-4-yl}-2-fluoro-6-methylsulfanyl-benzoic acid] | 12 | 989 |
| CCOc1cc(-c2cc(NCCc3c(C)sc4c(C)cc(F)cc34)ncn2)ccc1-c1cc(O)no1 [Example 202, 5-(2-Ethoxy-4-{6-[2-(5-fluoro-2,7-dimethyl-benzo[b]thiophen-3-yl)-ethylamino]-pyrimidin-4-yl}-phenyl)-isoxazol-3-ol [tautomeric form: 5-(2-ethoxy-4-(6-((2-(5-fluoro-2,7-dimethylbenzo[b]thiophen-3-yl)ethyl)amino)pyrimidin-4-yl)phenyl)isoxazol-3(2H)-one]] | 75 | 297 |
| CSc1cc(-c2cc(NCCc3c(C)sc4c(C)cccc34)ncn2)cc(Cl)c1C(=O)O [Example 50, 2-Chloro-4-{6-[2-(2,7-dimethyl-benzo[b]thiophen-3-yl)-ethylamino]-pyrimidin-4-yl}-6-methylsulfanyl-benzoic acid] | 13 | 605 |
| CCOc1cc(-c2cc(NCCc3c(C)sc4c(Cl)ccc(Cl)c34)ncn2)ccc1C(=O)O [Example 63, 4-{6-[2-(4,7-Dichloro-2-methyl-benzo[b]thiophen-3-yl)-ethylamino]-pyrimidin-4-yl}-2-ethoxy-benzoic acid] | 64 | 445 |
| COc1cc(F)c(F)c2c(CCNc3cc(-c4ccc(C(=O)O)c(OC5CC5)c4)ncn3)c(C)oc12 [Example 85, 2-Cyclopropoxy-4-{6-[2-(4,5-difluoro-7-methoxy-2-methyl-benzofuran-3-yl)-ethylamino]-pyrimidin-4-yl}-benzoic acid] | 49 | 258 |
| CCOc1cc(-c2cc(NCCc3c(C#N)sc4c(C)cc(F)cc34)ncn2)ccc1C(=O)O [Example 53, 4-{6-[2-(2-Cyano-5-fluoro-7-methyl-benzo[b]thiophen-3-yl)-ethylamino]-pyrimidin-4-yl}-2-ethoxy-benzoic acid] | 7 | 44 |
| Cc1sc2c(C)cccc2c1CCNc1cc(-c2ccc3cc(C(=O)O)oc3c2)ncn1 [Example 77, 6-{6-[2-(2,7-Dimethyl-benzo[b]thiophen-3-yl)-ethylamino]-pyrimidin-4-yl}-benzofuran-2-carboxylic acid] | 8 | 130 |
| CCOc1cc(-c2cc(NCCc3c(C)oc4c(OC)ccc(F)c34)ncn2)ccc1C(=O)O [Example 67, 2-Ethoxy-4-{6-[2-(4-fluoro-7-methoxy-2-methyl-benzofuran-3-yl)-ethylamino]-pyrimidin-4-yl}-benzoic acid] | 142 | 635 |
| Cc1oc2ccccc2c1CCNc1cc(-c2ccc(C(=O)O)c(SC(C)C)c2)ncn1 [Example 92, 2-Isopropylsulfanyl-4-{6-[2-(2-methyl-benzofuran-3-yl)-ethylamino]-pyrimidin-4-yl}-benzoic acid] | 6 | 672 |
| CCOc1cc(-c2cc(NCCc3c(C)sc4c(C)cccc34)ncn2)sc1C(=O)O [Example 36, 5-{6-[2-(2,7-Dimethyl-benzo[b]thiophen-3-yl)-ethylamino]-pyrimidin-4-yl}-3-ethoxy-thiophene-2-carboxylic acid] | 4 | 44 |
| Cc1cc(-c2cc(NCCc3c(C)oc4c(C)cc(Cl)cc34)ncn2)sc1C(=O)O [Example 4, 5-{6-[2-(5-Chloro-2,7-dimethyl-benzofuran-3-yl)-ethylamino]-pyrimidin-4-yl}-3-methyl-thiophene-2-carboxylic acid] | 33 | 394 |
| Cc1cc(-c2cc(NCCc3c(C)sc4c(C)cccc34)ncn2)sc1C(=O)O [Example 3, 5-{6-[2-(2,7-Dimethyl-benzo[b]thiophen-3-yl)-ethylamino]-pyrimidin-4-yl}-3-methyl-thiophene-2-carboxylic acid] | 18 | 222 |
| CSc1cc(-c2cc(NCCc3c(C)sc4c(C)ccc(Cl)c34)ncn2)ccc1C(=O)O [Example 19, 4-{6-[2-(4-Chloro-2,7-dimethyl-benzo[b]thiophen-3-yl)-ethylamino]-pyrimidin-4-yl}-2-methylsulfanyl-benzoic acid] | 83 | 468 |
| CCOc1cc(-c2cc(NCCc3c(C)oc4c(OC)cc(F)c(F)c34)ncn2)sc1C(=O)O [Example 31, 5-{6-[2-(4,5-Difluoro-7-methoxy-2-methyl-benzofuran-3-yl)-ethylamino]-pyrimidin-4-yl}-3-ethoxy-thiophene-2-carboxylic acid] | 10 | 13 |
| CCOc1cc(-c2cc(NCCc3c(CC)oc4c(C)cc(F)cc34)ncn2)sc1C(=O)O [Example 39, 3-Ethoxy-5-{6-[2-(2-ethyl-5-fluoro-7-methyl-benzofuran-3-yl)-ethylamino]-pyrimidin-4-yl}-thiophene-2-carboxylic acid] | 28 | 112 |
| CCCSc1cc(-c2cc(NCCc3c(C)oc4ccccc34)ncn2)ccc1C(=O)O [Example 89, 4-{6-[2-(2-Methyl-benzofuran-3-yl)-ethylamino]-pyrimidin-4-yl}-2-propylsulfanyl-benzoic acid] | 5 | 1140 |
| Cc1sc2c(C)cccc2c1CCNc1cc(-c2ccc3c(C(=O)O)coc3c2)ncn1 [Example 76, 6-{6-[2-(2,7-Dimethyl-benzo[b]thiophen-3-yl)-ethylamino]-pyrimidin-4-yl}-benzofuran-3-carboxylic acid] | 39 | 523 |
| CSc1cc(-c2cc(NCCc3c(C)oc4c(C)cc(F)cc34)ncn2)ccc1C(=O)O [Example 16, 4-{6-[2-(5-Fluoro-2,7-dimethyl-benzofuran-3-yl)-ethylamino]-pyrimidin-4-yl}-2-methylsulfanyl-benzoic acid] | 21 | 189 |
| CSc1cc(-c2cc(NCCc3c(C)sc4c(Cl)ccc(Cl)c34)ncn2)ccc1C(=O)O [Example 20, 4-{6-[2-(4,7-Dichloro-2-methyl-benzo[b]thiophen-3-yl)-ethylamino]-pyrimidin-4-yl}-2-methylsulfanyl-benzoic acid] | 26 | 532 |
| CCOc1cc(-c2cc(NCCc3c(C)sc4c(Cl)cc(F)cc34)ncn2)ccc1C(=O)O [Example 65, 4-{6-[2-(7-Chloro-5-fluoro-2-methyl-benzo[b]thiophen-3-yl)-ethylamino]-pyrimidin-4-yl}-2-ethoxy-benzoic acid] | 15 | 565 |
| CSc1cc(-c2cc(NCCc3c(C)oc4ccccc34)ncn2)ccc1C(=O)O [Example 18, 4-{6-[2-(2-Methyl-benzofuran-3-yl)-ethylamino]-pyrimidin-4-yl}-2-methylsulfanyl-benzoic acid] | 1 | 414 |
| COc1ccc(F)c2c(CCNc3cc(-c4ccc(C(=O)O)c(OC5CC5)c4)ncn3)c(C)sc12 [Example 84, 2-Cyclopropoxy-4-{6-[2-(4-fluoro-7-methoxy-2-methyl-benzo[b]thiophen-3-yl)-ethylamino]-pyrimidin-4-yl}-benzoic acid] | 21 | 117 |
| CSc1cc(-c2cc(NCCc3c(C)sc4c(C)c(F)ccc34)ncn2)ccc1C(=O)O [Example 21, 4-{6-[2-(6-Fluoro-2,7-dimethyl-benzo[b]thiophen-3-yl)-ethylamino]-pyrimidin-4-yl}-2-methylsulfanyl-benzoic acid] | 24 | 564 |
